Experimental findings from ChEMBL document CHEMBL1629629, “Reassessment of recommended imipenem doses in febrile neutropenic patients with hematological malignancies” (Antimicrob Agents Chemother, 2009) are described below.

Data set [1] is filed under the species Homo sapiens. The data set can be described thus: T>MIC in febrile neutropenic patient with hematological malignancies at 6 g/day.
The subject of another data set is Enterococcus. The data set can be described thus: Antimicrobial activity against Enterococcus. The format is functional.
The subject of data set [2] is Homo sapiens. The data set can be described thus: T>MIC in febrile neutropenic patient with hematological malignancies at 750 mg administered as 120 mins infusion every 6 hrs. The format is functional.
Data set [3] relates to Homo sapiens. Nature of the data set: T>MIC in febrile neutropenic patient with hematological malignancies at 500 mg administered as 30 mins infusion every 6 hrs. The format is functional.
Data set [4] is described as follows: Renal clearance in febrile neutropenic patient with hematological malignancies at 500 mg administered as 30 mins infusion every 6 hrs. Particulars: human, in vivo, iv, read-out: CL_renal (converted). The format is ADME, organism-based, Kidney.
The next data set relates to Pseudomonas aeruginosa. Nature of the data set: Antimicrobial activity against Pseudomonas aeruginosa. The format is functional.
The nature of data set [5]: T>MIC in febrile neutropenic patient with hematological malignancies at 500 mg administered as infusion every 4 hrs. The format is functional, Homo sapiens.
Data set [6] deals with Homo sapiens. The data set can be described thus: T>MIC in febrile neutropenic patient with hematological malignancies at 500 mg administered as infusion every 6 hrs. The format is functional.
Data set [7] in a line: Cmax in febrile neutropenic patient with hematological malignancies at 500 mg administered as 30 mins infusion every 6 hrs. The format is ADME, organism-based. More on the design: dose 500 mg. The following applies: human, in vivo, iv.
Data set [8] in a line: Elimination half life in febrile neutropenic patient with hematological malignancies at 500 mg administered as 30 mins infusion every 6 hrs. Particulars: human, in vivo, iv. The format is ADME, organism-based.

Values after ≈ are worked out from the molar mass of the structure shown.

In general, MIC90 refers to the lowest concentration that inhibits either 90% of growth or 90% of the strains tested, depending on the study. Usually Cmax stands for the peak of the concentration-time curve. The term half-life denotes the time needed for the level to fall by half in the phase considered. The low end stands for fast loss, the high end for slow loss. As to `C[C@@H](O)[C@H]1C(=O)N2C(C(=O)O)=C(SCCNC=N)C[C@H]12` [IMIPENEM ANHYDROUS], the “fT>MIC” value in the data set filed under Homo sapiens [1] came out at 90%; in the data set on Homo sapiens [2], 58%; in the data set on Homo sapiens [3], 53%; in [5] it was 73%; with Homo sapiens [6], 18%. Besides, the MIC90 against Enterococcus and in the data set on Pseudomonas aeruginosa was 2 µg/mL (≈ 6.68 µM) in each case. Further, in data set [4], the CL renal is 79.8 mL/min. Moreover, in data set [7], the concentration peaked (Cmax) at 6600 ng/mL. Further, the half-life in [8] was 1.43 h.
